# Counter-ions that a name gives are not always drawn. Like-named read-outs stand apart in the source and are kept apart here.
# Experiments:
# [1] = target: muscarinic receptors (mainly M1) of rat brain cortex membranes (Rattus norvegicus, UniProt P08482); type: binding
# [2] = system: guinea pig tracheal rings; test: Guinea pig trachea assay, pA2 against carbachol (Schild plot)
# Protocol: Changes in isometric tension were measured by a force displacement transducer (Experimetria, Budapest, Hungary) coupled to a Watanabe recorder. Cumulative concentration-effect curves were constructed to carbachol in the absence or presence of the antagonists. In each animal two preparations were used as time control (i.e., repeated carbachol curves in the absence of any antagonist) the remaining two preparations were used to test responses in the presence of two different concentrations of the antagonist.
# Antagonists were added to the organ bath 30 min prior to commencement of the agonist concentration versus effect curves. Schild plots were constructed for the antagonists against carbachol and pA2 values as well as slope estimates were obtained.
# Responses were measured as changes in isometric tension and calculated as a percentage of the maximum response attained in the initial concentration-response curve. Determination of antagonist potencies was done by constructing Schild double logarithmic plot of log (DR-1) versus −log M concentrations of the antagonist, and the slope of the plot was computed. […] Statistical significance was assessed by ANOVA followed by Dunnett test.
# [3] = system: guinea pig ileum longitudinal muscle strips; test: Guinea pig ileum longitudinal muscle assay, pA2 against acetylcholine (Schild plot)
# [4] = system: acetylcholine-induced bronchoconstriction; conditions: guinea pig, in vivo
# [5] = system: electrically stimulated guinea pig tracheal strips; test: Time course of anticholinergic effect in electrically stimulated guinea pig trachea
# [6] = target: T1, cloned human muscarinic receptor subtype M2 (Homo sapiens, UniProt P08172); test: Receptor binding, [3H]NMS, cloned human muscarinic receptor M2
# T1 sequence (P08172 1-466): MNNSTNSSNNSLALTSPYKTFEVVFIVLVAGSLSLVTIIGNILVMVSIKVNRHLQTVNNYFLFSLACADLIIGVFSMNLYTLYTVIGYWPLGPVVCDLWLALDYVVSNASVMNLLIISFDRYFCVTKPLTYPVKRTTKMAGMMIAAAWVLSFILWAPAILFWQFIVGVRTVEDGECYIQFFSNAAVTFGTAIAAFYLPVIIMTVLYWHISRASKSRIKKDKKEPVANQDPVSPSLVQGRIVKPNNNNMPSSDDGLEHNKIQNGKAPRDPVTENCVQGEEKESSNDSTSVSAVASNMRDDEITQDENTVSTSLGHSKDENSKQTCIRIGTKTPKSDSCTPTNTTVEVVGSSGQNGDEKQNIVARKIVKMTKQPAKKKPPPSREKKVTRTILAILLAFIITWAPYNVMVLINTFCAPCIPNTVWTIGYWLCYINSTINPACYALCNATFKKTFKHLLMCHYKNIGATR
# [7] = target: T2, cloned human muscarinic receptor subtype M1 (Homo sapiens, UniProt P11229); test: Receptor binding, [3H]NMS, cloned human muscarinic receptor M1
# T2 sequence (P11229 1-460): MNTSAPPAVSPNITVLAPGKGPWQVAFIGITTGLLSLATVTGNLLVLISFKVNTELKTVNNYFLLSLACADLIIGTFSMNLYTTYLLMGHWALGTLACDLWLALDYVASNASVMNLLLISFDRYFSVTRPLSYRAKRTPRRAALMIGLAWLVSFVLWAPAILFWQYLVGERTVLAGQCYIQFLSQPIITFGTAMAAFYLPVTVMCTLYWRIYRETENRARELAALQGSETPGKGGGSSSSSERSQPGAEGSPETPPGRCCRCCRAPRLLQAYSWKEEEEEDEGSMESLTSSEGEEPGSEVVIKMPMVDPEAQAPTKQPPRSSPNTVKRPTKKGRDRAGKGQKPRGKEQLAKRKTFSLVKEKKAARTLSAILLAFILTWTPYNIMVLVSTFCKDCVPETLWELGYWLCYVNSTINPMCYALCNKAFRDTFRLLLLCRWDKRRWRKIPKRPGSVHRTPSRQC
# [8] = target: T3, cloned human muscarinic receptor subtype M3 (Homo sapiens, UniProt P20309); test: Receptor binding, [3H]NMS, cloned human muscarinic receptor M3
# T3 construct: purchased Applied Cell Science Inc. (Rockville, Md.)
# [9] = target: T4, cloned human muscarinic receptor subtype M4 (Homo sapiens, UniProt P08173); test: Receptor binding, [3H]NMS, cloned human muscarinic receptor M4
# T4 construct: purchased Applied Cell Science Inc. (Rockville, Md.)
# T4 sequence (P08173 1-479): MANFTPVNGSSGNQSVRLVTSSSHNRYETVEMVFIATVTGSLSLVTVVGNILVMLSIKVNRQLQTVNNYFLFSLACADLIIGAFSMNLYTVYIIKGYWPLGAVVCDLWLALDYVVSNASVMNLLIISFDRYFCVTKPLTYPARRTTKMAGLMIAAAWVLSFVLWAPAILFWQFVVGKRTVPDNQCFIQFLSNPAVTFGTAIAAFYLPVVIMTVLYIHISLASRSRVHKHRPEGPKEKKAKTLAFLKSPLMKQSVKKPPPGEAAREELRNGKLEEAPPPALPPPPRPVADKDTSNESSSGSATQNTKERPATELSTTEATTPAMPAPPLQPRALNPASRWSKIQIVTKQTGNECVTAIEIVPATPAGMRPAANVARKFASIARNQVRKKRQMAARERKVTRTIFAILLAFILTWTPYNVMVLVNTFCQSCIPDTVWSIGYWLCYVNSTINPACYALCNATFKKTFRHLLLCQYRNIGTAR
# [10] = target: cloned human muscarinic receptor subtypes M1-M4; test: Receptor binding at cloned human muscarinic receptors, values stated across subtypes (ranges, M3/M2 selectivity)
# [11] = system: guinea pig ileum (M3 muscarinic receptors)
# [12] = time from washout to 20% recovery of cholinergic responses
compound,measurement,setting,value
"C[N+]1(CC(=O)O)[C@@H]2C[C@@H](OC(=O)C(O)(c3cccs3)c3cccs3)C[C@H]1[C@@H]1O[C@@H]12 (stereo partly drawn) (as salt: salt) [Compound (aa), 6β,7β-epoxy-3β-hydroxy-8-carboxymethyl-8-methyl-1αH,5αH-tropanuim, di-2-thienylglycolate inner salt]",melting point,,158 to 165 °C (dec.)
"CCOC(=O)C[N@@+]1(C)CC[C@@H](OC(=O)[C@](O)(c2ccccc2)C2CCCC2)C1 [Compound (n), (2R,1′S,3′R) 3-(2-cyclopentyl-2-phenyl-2-hydroxyacetoxy)-1-(ethoxycarbonylmethyl)-1-methylpyrrolidinium bromide]",Hill slope,[1]; Table 8,−1.07 ± 0.02
"CCOC(=O)C[N+]1(C)[C@@H]2C[C@@H](OC(=O)C(O)(c3cccs3)c3cccs3)C[C@H]1[C@@H]1O[C@@H]12 (stereo partly drawn) (as salt: bromide) [Compound (w), 6β,7β-epoxy-3,8-hydroxy-8-ethoxycarbonylmethyl-8-methyl-1αH,5αH-tropaniun bromide, di-2-thienylglycolate]",melting point,,115 °C
"CCOC(=O)C[N@+]1(C)CC[C@@H](OC(=O)[C@](O)(c2ccccc2)C2CCCC2)C1 [Compound (m), (2R,1′R,3′R) 3-(2-cyclopentyl-2-phenyl-2-hydroxyacetoxy)-1-(ethoxycarbonylmethyl)-1-methylpyrrolidinium bromide]",Hill slope,[1]; Table 8,−0.93 ± 0.08
same,"pA2, Trachea","[2]; against carbachol, tissue from four animals",8.12
same,"pA2, Ileum",[3]; tissue samples from four animals,8.48
same,effect on acetylcholine-induced bronchoconstriction,[4],protective effect
"C[N+]1(CC(=O)O)[C@@H]2C[C@@H](OC(=O)C(O)(c3cccs3)c3cccs3)C[C@H]1[C@@H]1O[C@@H]12 (stereo partly drawn) [Compound (aa), 6β,7β-epoxy-3β-hydroxy-8-carboxymethyl-8-methyl-1αH,5αH-tropanuim, di-2-thienylglycolate inner salt]",t1/5 onset,[5]; onset of inhibition,0.9 min
same,t1/5 offset,[5]; [12],27 min
C[N+]1(CC(=O)OCC(Cl)(Cl)Cl)[C@@H]2C[C@@H](OC(=O)C(O)(c3cccs3)c3cccs3)C[C@H]1[C@@H]1O[C@@H]12 (some centres unmarked) (as salt: bromide),melting point,,105 °C
"CC(C)[N+]1(C)[C@@H]2CC[C@H]1CC(OC(=O)C(CO)c1ccccc1)C2.[Br-] (some centres unmarked) [Ipratropium Br, ipratropium bromide, reference compound]","pA2, Trachea",[2],9.18
same,t1/5 onset,[5],3.0 min
"C[N+]1(C)[C@@H]2C[C@@H](OC(=O)[C@H](CO)c3ccccc3)C[C@H]1[C@@H]1O[C@@H]12 [scopolamine methyl bromide, scopolamine methylbromide, reference compound]","Hill slope, M2",[6],(1.02 ± 0.02)
"CCOC(=O)C[N+]1(C)CC[C@H](OC(=O)[C@](O)(c2ccccc2)C2CCCC2)C1 (mixture of isomers) [Compound (j), (2R,3′S) 3-(2-cyclopentyl-2-phenyl-2-hydroxyacetoxy)-1-(ethoxycarbonylmethyl)-1-methylpyrrolidinium bromide]",Ki,"[7]; mean ± SD of 3 experiments, read-out: receptor binding affinity pKi, M1 (converted)",2.09 nM
same,"Hill slope, M1",[7]; numbers in parentheses,(1.21 ± 0.33)
same,Ki,"[6]; mean ± SD of 3 experiments, read-out: receptor binding affinity pKi, M2 (converted)",6.17 nM
same,"Hill slope, M2",[6]; numbers in parentheses,(1.27 ± 0.11)
same,Ki,"[8]; mean ± SD of 3 experiments, read-out: receptor binding affinity pKi, M3 (converted)",2.29 nM
same,"Hill slope, M3",[8]; numbers in parentheses,(1.33 ± 0.16)
same,Ki,"[9]; mean ± SD of 3 experiments, read-out: receptor binding affinity pKi, M4 (converted)",1.95 nM
same,"Hill slope, M4",[9]; numbers in parentheses,(1.15 ± 0.03)
same,"pKi, range over subtypes M1-M4",[10],8.2-8.7
same,Selectivity M3/M2 (affinity ratio),[10]; M3/M2 affinity ratio,2.8±0.8 times
"C[N+]1(C)CCC(OC(=O)C(O)(c2ccccc2)C2CCCC2)C1.[Br-] (mixture of isomers) [glycopyrrolate, 3-(2-cyclopentyl-2-phenyl-2-hydroxyacetoxy)-1,1-dimethylpyrrolidinium bromide, reference compound]","Hill slope, M1",[7],(1.37 ± 0.20)
same,"Hill slope, M2",[6],(0.99 ± 0.11)
same,"Hill slope, M3",[8],(1.14 ± 0.25)
same,"Hill slope, M4",[9],(1.02 ± 0.01)
same,pA2,[11],8.57±0.12
same,"pA2, Trachea",[2],9.43
same,"pA2, Ileum",[3],9.66
same,effect on acetylcholine-induced bronchoconstriction,[4],protective effect
"CN1[C@@H]2CC[C@H]1C[C@@H](OC(=O)C(CO)c1ccccc1)C2 (some centres unmarked) [Atropine, atropine]","pA2, Ileum",[3],8.52
same,t1/5 offset,[5],10 min
same,t1/5 onset,[5],2.5 min
"CCOC(=O)C[N+]1(C)[C@@H]2C[C@@H](OC(=O)C(O)(c3cccs3)c3cccs3)C[C@H]1[C@@H]1O[C@@H]12 (stereo partly drawn) [Compound (w), 6β,7β-epoxy-3,8-hydroxy-8-ethoxycarbonylmethyl-8-methyl-1αH,5αH-tropaniun bromide, di-2-thienylglycolate]",Hill slope,[1],−1.00 ± 0.04
same,Ki,[1],7.2 ± 0.5 nM
same,"pA2, Trachea",[2],8.82
same,t1/5 onset,[5]; onset of inhibition,0.6 min
same,t1/5 offset,[5]; [12],60 min
"C[N+]1(C)[C@@H]2C[C@@H](OC(=O)C(O)(c3cccs3)c3cccs3)C[C@H]1[C@@H]1O[C@@H]12 [Tiotropium, tiotropium]",t1/5 offset,[5],>360 min
same,t1/5 onset,[5],8.0 min
